Legend:
[1] = system: HeLa cells; assay: Cell cycle distribution by flow cytometry; conditions: 18 h; 125 nM AF, 200 nM AI, 35 nM AJ
[2] = system: isogenic HeLa-derived cell line that expresses the βIII isotype of tubulin; conditions: cited from earlier work

For `CC(=O)O[C@H]1C(=O)[C@@]2(C)[C@H]([C@H](OC(=O)c3ccccc3)[C@]3(O)C[C@H](OC(=O)[C@H](O)[C@@H](NC(=O)c4ccccc4)c4ccccc4)C(C)=C1C3(C)C)[C@]1(OC(C)=O)CO[C@@H]1C[C@@H]2O` [paclitaxel], the “effect on cell cycle distribution / mitotic progression” value [1] is given as “mitotic arrest” and the “sensitivity of βIII-tubulin-overexpressing cell line compared with parental HeLa cells” value [2] is given as “less sensitive”.

From patent US9340572B2, “Taccalonolide microtubule stabilizers” (THE BOARD OF REGENTS OF THE UNIVERSITY OF TEXAS SYSTEM, priority 2011, dated 2016)
